Assay results from patent US20230398105A1, “TREATMENT REGIMENS FOR PARKINSON'S DISEASE” (BIAL - PORTELA & Cª, S.A., priority 2020, published 2023).

Tests used:
[1] = system: Parkinson's disease patients; assay: Pooled BIPARK-I and BIPARK-II post-hoc analysis: change from baseline in absolute off-time; assay type: in vivo, human; conditions: after 14-15 weeks
From the text: The term “absolute off-time” is the combined total daily of 30-minute periods spent in an “off” state. Conversely, the term “absolute on-time” is the combined total daily of 30-minute periods spent in an “on” state. Periods where the patient is asleep are excluded from either group.
The term “unpredictable motor fluctuations”, also known as “unpredictable on/off fluctuations” or “on/off phenomenon”, relates to the unpredictable re-emergence or worsening of symptoms at any time, such as severe troublesome dyskinesias, severe/unpredictable end-of-dose motor fluctuations, painful “off” dystonia and morning akinesia (Fabbri M. et al., Mov. Disord., 2018, 33, 1528-1539). Unpredictable motor fluctuations are unrelated to the timing of the next dose and may occur at any time during the day. […] Within the clinical trials analysed, unpredictable on/off fluctuations were defined as present if clinicians scored “NO” at the UPDRS item 36 (“Are “off” periods predictable?”), or “YES” in at least one of the following UPDRS items: 37 (“Are “off” periods unpredictable?”) and 38 (“Do “off” periods come on suddenly, within a few seconds?”).
(§1) The results of the two multi-centered double-blinded (DB) randomized placebo-controlled trials BIPARK-I (Ferreira et al., Lancet Neurol., 2016, 15, 154-65) and BIPARK-II (Lees et al., JAMA Neurol., 2017, 74, 197-206) were pooled together. Both clinical trials were performed to evaluate the efficacy and safety of opicapone in addition to levodopa-treated patients with moderate end-of-dose motor fluctuations. All patients had signs of end-of-dose deterioration for at least 4 weeks before screening, with a mean total awake off-time (state of akinesia or decreased mobility) of at least 1.5 hours, excluding morning akinesia. Eligible patients were randomized at baseline to the double-blind phase using a computer-generated scheme (administered by Cenduit, LLC) in a ratio of 1:1:1 to the addition of oral capsular opicapone, 25 mg/day or 50 mg/day, or matching placebo. The double-blind phase assessments occurred at 4-week intervals and the total duration of the double-blind phase could be 14 to 15 weeks. Full details of the inclusion and exclusion criteria and on study design are described in Ferreira et al., Lancet Neurol., 2016, 15, 154-65 and Lees et al., JAMA Neurol., 2017, 74, 197-206, which are incorporated herein by reference. Reductions in the daily dose (but not frequency) of levodopa were allowed between baseline and 3 to 4 weeks after baseline according to the clinical response but were not permitted thereafter.
(§2) Populations undergoing analysis included all randomized patients who took at least 1 dose of study medication and had at least 1 post-baseline off-time assessment. The post-hoc analysis described herein, analyzed Parkinson's disease patients with (“YES”) and without (“NO”) unpredictable on/off fluctuations.
(§3) The primary efficacy variable was the change from baseline in absolute off-time. As secondary end-point, the inventors analyzed the absolute on-time as well as the proportions of patients achieving at least a 1-hour reduction in absolute off-time and/or the proportions of patients achieving at least a 1-hour increase in absolute on-time at the end of the double-blind phase, defined as “responders”.
(§4) Changes from baseline were analysed using ANCOVA with treatment group included as fixed effect factor and the baseline scale score as a covariate. CMH-Test was used to assess differences between OPC dose levels and Placebo taking study into account as a factor.
(§5) Opicapone was synthesised as described in WO 2013/089573 and formulated into 25 or 50 mg capsules as described in WO 2010/114405. Study treatment (opicapone or matching placebo) was taken orally once daily in the evening at least 1 hour after the last daily dose of levodopa/DDCI (considered the bedtime dose).

[2] = system: Parkinson's disease patients; assay: Pooled BIPARK-I and BIPARK-II: OFF-time and ON-time responder rates (≥1 hour) at endpoint; assay type: in vivo, human
From the text: The term “responders” is defined as patients achieving at least a 1-hour reduction in absolute off-time and/or the proportions of patients achieving at least a 1-hour increase in absolute on-time at the end of the double-blind phase of the trial.
as §1, §2, §3, §4, §5

[3] = system: Parkinson's disease patients; conditions: BIPARK-I; patients with end-of-dose motor fluctuations; cited from earlier work
[4] = system: Parkinson's disease patients; assay: Pooled BIPARK-I and BIPARK-II: treatment-emergent adverse events in the safety set; assay type: in vivo, human
From the text: The term “treatment-emergent adverse events” is defined as any event not present before exposure to the study drug or any event already present that worsens in either intensity or frequency after first intake of study drug until 2 weeks after last intake of the study drug.
as §1, §5

[5] = 25 mg, NO: without unpredictable motor fluctuations
[6] = 25 mg, YES: with unpredictable motor fluctuations
[7] = 50 mg, NO: without unpredictable motor fluctuations
[8] = 50 mg, YES: with unpredictable motor fluctuations
[9] = 25 mg, NO: without unpredictable motor fluctuations, N = 143
[10] = 25 mg, YES: unpredictable motor fluctuations, N = 98
[11] = 50 mg, NO: without unpredictable motor fluctuations, N = 175
[12] = 50 mg, YES: unpredictable motor fluctuations, N = 87

Cc1c(Cl)c(C)[n+]([O-])c(Cl)c1-c1noc(-c2cc(O)c(O)c([N+](=O)[O-])c2)n1 [opicapone, 2,5-dichloro-3-[5-(3,4-dihydroxy-5-nitrophenyl)-1,2,4-oxadiazol-3-yl]-4,6-dimethylpyridine 1-oxide]
Absolute off-time, change from baseline vs. placebo ([1]; 25 mg vs. placebo, NO: patients without unpredictable motor fluctuations): -20.4 min
Absolute off-time, change from baseline vs. placebo ([1]; 25 mg vs. placebo, Total patients): -40.7 min
Absolute off-time, change from baseline vs. placebo ([1]; 25 mg vs. placebo, YES: patients with unpredictable motor fluctuations): -61 min
Absolute off-time, change from baseline to end-point ([1]; 25 mg, NO: patients without unpredictable motor fluctuations): -73.6 min
Absolute off-time, change from baseline to end-point ([1]; 25 mg, Total patients): -98.7 min
Absolute off-time, change from baseline to end-point ([1]; 25 mg, YES: patients with unpredictable motor fluctuations): -123.8 min
Absolute off-time, change from baseline vs. placebo ([1]; 50 mg vs. placebo, Total patients): -64 min
Absolute off-time, change from baseline to end-point ([1]; 50 mg, NO: patients without unpredictable motor fluctuations): -104.7 min
Absolute off-time, change from baseline to end-point ([1]; 50 mg, Total patients): -122 min
Absolute off-time, change from baseline to end-point ([1]; 50 mg, YES: patients with unpredictable motor fluctuations): -139.3 min
responders, off-time reduced (≥1 hour) [2, 5]: 58.7%
responders, on-time increased (≥1 hour) [2, 5]: 53.8%
responders, off-time reduced (≥1 hour) [2, 6]: 65.3%
responders, on-time increased (≥1 hour) [2, 6]: 69.4%
responders, off-time reduced (≥1 hour) [2, 7]: 68.6%
responders, on-time increased (≥1 hour) [2, 7]: 61.7%
responders, off-time reduced (≥1 hour) [2, 8]: 65.5%
responders, on-time increased (≥1 hour) [2, 8]: 66.7%
ability to reduce the time patients spent in the off state, vs. entacapone [3]: non-inferior
ability to reduce the time patients spent in the off state, vs. placebo combined with levodopa/DCCI [3]: superior
Incidence of Related Serious TEAEs [4, 9]: 0 number (%)
Incidence of Serious TEAEs [4, 9]: 2 (0.8) number (%)
Incidence of any TEAEs leading to Discontinuation [4, 9]: 7 (2.9) number (%)
TEAE: Anxiety [4, 9]: 0 number (%)
TEAE: Back pain [4, 9]: 4 (2.7) number (%)
TEAE: Constipation [4, 9]: 9 (6.2) number (%)
TEAE: Dizziness [4, 9]: 7 (4.8) number (%)
TEAE: Dry mouth [4, 9]: 8 (5.5) number (%)
TEAE: Dyskinesias [4, 9]: 14 (9.6) number (%)
TEAE: Falls [4, 9]: 3 (2.1) number (%)
TEAE: Headache [4, 9]: 6 (4.1) number (%)
TEAE: Hypertension [4, 9]: 6 (4.1) number (%)
TEAE: Insomnia [4, 9]: 11 (7.5) number (%)
TEAE: Nausea [4, 9]: 5 (3.4) number (%)
TEAE: Parkinson's disease [4, 9]: 4 (2.7) number (%)
TEAE: Somnolence [4, 9]: 3 (2.1) number (%)
TEAE: Urinary tract infection [4, 9]: 1 (0.7) number (%)
TEAE: ↑CPK (Blood creatine phosphokinase) [4, 9]: 4 (2.7) number (%)
Incidence of Serious TEAEs [4, 10]: 3 (1.2) number (%)
Incidence of any TEAEs leading to Discontinuation [4, 10]: 6 (2.5) number (%)
TEAE: Anxiety [4, 10]: 5 (5.1) number (%)
TEAE: Back pain [4, 10]: 1 (1.0) number (%)
TEAE: Constipation [4, 10]: 3 (3.1) number (%)
TEAE: Dizziness [4, 10]: 3 (3.1) number (%)
TEAE: Dry mouth [4, 10]: 8 (8.2) number (%)
TEAE: Dyskinesias [4, 10]: 25 (25.5) number (%)
TEAE: Falls [4, 10]: 8 (8.2) number (%)
TEAE: Headache [4, 10]: 2 (2.0) number (%)
TEAE: Hypertension [4, 10]: 4 ( 4.1) number (%)
TEAE: Insomnia [4, 10]: 6 (6.1) number (%)
TEAE: Nausea [4, 10]: 6 (6.1) number (%)
TEAE: Parkinson's disease [4, 10]: 7 (7.1) number (%)
TEAE: Somnolence [4, 10]: 7 (7.1) number (%)
TEAE: Urinary tract infection [4, 10]: 3 (3.1) number (%)
TEAE: Weight decrease [4, 10]: 0 number (%)
TEAE: ↑CPK (Blood creatine phosphokinase) [4, 10]: 3 (3.1) number (%)
Incidence of Serious TEAEs [4, 11]: 6 (2.3) number (%)
Incidence of any TEAEs leading to Discontinuation [4, 11]: 13 (4.9) number (%)
TEAE: Back pain [4, 11]: 1 (0.6) number (%)
TEAE: Constipation [4, 11]: 10 (5.6) number (%)
TEAE: Dizziness [4, 11]: 5 (2.8) number (%)
TEAE: Dry mouth [4, 11]: 5 (2.8) number (%)
TEAE: Dyskinesias [4, 11]: 35 (19.7) number (%)
TEAE: Falls [4, 11]: 3 (1.7) number (%)
TEAE: Headache [4, 11]: 7 (3.9) number (%)
TEAE: Hypertension [4, 11]: 7 (3.9) number (%)
TEAE: Insomnia [4, 11]: 6 (3.4) number (%)
TEAE: Nausea [4, 11]: 6 (3.4) number (%)
TEAE: Parkinson's disease [4, 11]: 5 (2.8) number (%)
TEAE: Somnolence [4, 11]: 3 (1.7) number (%)
TEAE: Urinary tract infection [4, 11]: 9 (5.1) number (%)
TEAE: Weight decrease [4, 11]: 9 (5.1) number (%)
TEAE: ↑CPK (Blood creatine phosphokinase) [4, 11]: 12 (6.7) number (%)
Incidence of Related Serious TEAEs [4, 12]: 1 (0.4) number (%)
Incidence of Serious TEAEs [4, 12]: 7 (2.6) number (%)
Incidence of any TEAEs leading to Discontinuation [4, 12]: 10 (3.8) number (%)
TEAE: Anxiety [4, 12]: 3 (3.4) number (%)
TEAE: Back pain [4, 12]: 2 (2.3) number (%)
TEAE: Constipation [4, 12]: 7 (8.0) number (%)
TEAE: Dizziness [4, 12]: 4 (4.6) number (%)
TEAE: Dry mouth [4, 12]: 3 (3.4) number (%)
TEAE: Dyskinesias [4, 12]: 19 (21.8) number (%)
TEAE: Falls [4, 12]: 5 (5.7) number (%)
TEAE: Headache [4, 12]: 3 (3.4) number (%)
TEAE: Hypertension [4, 12]: 1 (1.1) number (%)
TEAE: Insomnia [4, 12]: 3 (3.4) number (%)
TEAE: Nausea [4, 12]: 2 (2.3) number (%)
TEAE: Parkinson's disease [4, 12]: 1 (1.1) number (%)
TEAE: Somnolence [4, 12]: 2 (2.3) number (%)
TEAE: Urinary tract infection [4, 12]: 1 (1.1) number (%)
TEAE: Weight decrease [4, 12]: 1.1 (0.4) number (%)
TEAE: ↑CPK (Blood creatine phosphokinase) [4, 12]: 1 (1.1) number (%)
Safety in patients with unpredictable motor fluctuations ([4]; patients with unpredictable motor fluctuations): safe
